Data on one sequence can be found in patent US20240190916A1, “NOVEL PEPTIDE” (HYSENSBIO, priority 2022, published 2024).

Assay [1] relates to DSP. In words: Western blot of DSP protein in human dental pulp cells. It is filed as cell-based. Particulars: 1, 10, and 50 ug, FIG. 3. The protocol: (§1) FIG. 3 is a result of confirming expressions of DSP and BSP proteins by Western blot after treating human dental pulp cells with the novel peptide (SEQ ID NO: 1) in a concentration-dependent manner (1, 10, and 50 ug) to confirm the effect of novel peptides on expressions of marker proteins for differentiation of odontoblasts, osteoblasts and cementoblasts.

Assay [2] concerns DSPP gene. The experiment in a line: DSPP mRNA level by real-time PCR in human dental pulp cells. The note with it: peptide 10 ug/ml, compared to untreated control. It is filed as cell-based. The protocol:
Human pulp tissue cells were isolated from wisdom teeth of 10 adults (18-22 years old) at Seoul National University Dental Hospital. Specifically, all experiments were performed with the patient's consent after approval from the hospital's Institutional Review Board, and wisdom teeth are cut according to a method of Jung H S et al (J Mol Histol. (2011)), exposing the pulp and isolating the pulp with forceps. The isolated pulp was minced on both sides, placed in a 60 mm dish, covered with a cover slip, and then cultured in Dulbecco's Modified Eagle medium. It is known that human dental pulp cells can differentiate into odontoblasts, osteoblasts, cementoblasts and periodontal ligament cells under various conditions (Tissue Eng Part A. 2014 April; 20(7-8): 1342-51).
(§2) Total RNA of human dental pulp cells and mesenchymal stem cells was isolated using a TRIzol reagent. cDNA was synthesized using 2 μg of total RNA, 1 μl of reverse transcriptase, and 0.5 μg of oligo (dT). The synthesized cDNA was used for real-time polymerase chain reaction. The real-time polymerase chain reaction was performed in ABI PRISM 7500 sequence detection system (Applied Biosystems) using SYBR GREEN PCR Master Mix (Takara, Japan). The real-time polymerase chain reaction was performed at 94° C., 1 min; 95° C., 15 sec-60° C., 34 sec was performed under the condition of repeating 40 cycles. An analysis of the results was evaluated using a comparative cycle threshold (CT) method, and primer base sequences are listed in Table 9.
The effect of each group of peptides on DSPP mRNA expression was confirmed by real-time PCR (Table 10).

The test system of assay [3] is DMP1 gene. The experiment in a line: DMP1 mRNA level by real-time PCR in human-derived mesenchymal stem cells. It is filed as cell-based. The note with it: compared to untreated control. The protocol: (§3) It was cultured at 37° C. in humid air containing 5% CO2 and used for the experiment. Human mesenchymal stem cells (hBMSCs) were purchased from Lonza (LONZA, Switzerland) and used. hBMSCs were cultured in a-MEM (Invitrogen) medium supplemented with 10% heat-inactivated bovine serum.
as §2
(§4) BSP and DMP1 genes are used as markers for differentiation of osteoblasts and cementoblasts, and are known as important genes for calcification of a bone and cementum. The effects of each group of peptides on BSP and DMP1 mRNA expression were confirmed by a real-time PCR (Tables 11 and 12).

Assay [4] concerns human dental pulp cells (hDPCs) transplanted into the subcutaneous tissue of mice with impaired immune systems. In words: In vivo transplantation of hDPCs with HA/TCP and histological analysis. The protocol: Human dental pulp cells (hDPCs) were isolated and used for in vivo transplantation experiments. hDPCs (2×10^6 cells) were mixed with 100 mg of hydroxy apatite/tricalcium phosphate (HA/TCP) ceramic powder (Zimmer, USA) alone or along with peptides (10 μg) or 0.5% fibrin gel, and then transplanted into mice (NIH-bg-nu-xid; Harlan Laboratories, Indianapolis, IN) with damaged immune systems for 6 and 12 weeks. Thereafter, samples were harvested, fixed in 4% paraformaldehyde, decalcified in 10% EDTA (pH 7.4), embedded in paraffin, and stained with hematoxylin-eosin (H-E) (Vector Labs).

The test system of assay [5] is BSP. The experiment in a line: Western blot of BSP protein in human dental pulp cells. The assay is classed as cell-based. The note with it: 1, 10, and 50 ug, FIG. 3. Here is the method:
as §1

Assay [6] concerns BSP gene. In words: BSP mRNA level by real-time PCR in human-derived mesenchymal stem cells. The assay is classed as cell-based. Particulars: compared to untreated control. The protocol: as §3, §2, §4
Assay [7] deals with damaged dentin of beagle dog's teeth. The experiment in a line: Dentin regeneration in dentin damage model. The assay is classed as in vivo. The note with it: 10 ug per tooth, 3 weeks after application, vs control group, FIG. 4. Here is the method:
Three beagle dogs (12-16 kg; […]) were anesthetized by inhalation of Geloran, intravenously injected with Zoletil (5 mg/kg) and Xylazine (0.2-0.5 mg/kg), and then treated with Lidocaine (Lidocaine 2% with 1:80,000 epinephrine). After damaging the dentin of the premolars and molar teeth in the mandible of the beagle dog using a dental bur, 10 ug of SEQ ID NO: 1 peptide of group 1 was treated per tooth. After 6 weeks, a beagle dog was sacrificed by administering an excessive amount (90-120 mg/kg) of pentobarbital. The tooth of the beagle dog was extracted, fixed with 10% formalin, calcium was removed by adding 5% formic acid, molded, and embedded in paraffin, and then a tissue section with a thickness of 5 μm were obtained, a obtained tissue section was stained with hematoxylin and eosin, and then analyzed using by an optical microscope equipped with a digital camera (LEICA ICC50 camera, Germany).
FIG. 4 is the result of histological evaluation 3 weeks after application of 10 ug of the novel peptide (SEQ ID NO: 1) after damaging the dentine of beagle dog's teeth in order to confirm that the novel peptide induces physiological dentin regeneration in a animal model of damaged dentin.

Regarding KYKAKKKNYK [SEQ ID NO: 1], in assay [1], the “expression of DSP protein (marker for differentiation of odontoblasts)” value was “increased in a concentration-dependent manner”. In addition, the “mRNA level of DSPP gene, Average” value in assay [2] is 9.028 fold. Moreover, the “mRNA level of DMP1 gene, DMP1 gene expression, Average” value in assay [3] is reported as 11.401 fold. Further, in assay [4] (10 ug peptide with hDPCs, 6 weeks after transplantation, vs hDPCs-only control, FIG. 6), the “periodontal ligament formation, hematoxylin-eosin histology” value was “periodontal ligament fiber bundle (black triangle) were formed”. Moreover, the “proportion of hard tissue formation” value in assay [4] (10 ug peptide with hDPCs, 12 weeks after transplantation, vs hDPCs-only control, FIG. 5) is “increased”. For the same sequence, the “hard tissue (bone/cementum-like tissue) formation, hematoxylin-eosin histology” value in assay [4] (hDPCs with HA/TCP, 12 weeks after transplantation, FIG. 5) is “more similar hard tissue formation as the BMP-2 treated group compared to the control group”. Besides, in assay [5], the “expression of BSP protein (marker for differentiation of osteoblasts and cementoblasts)” value was “increased in a concentration-dependent manner”. Moreover, in assay [6], the “mRNA level of BSP gene, BSP gene expression, Average” value is listed as 2.892 fold. In assay [7], the “physiological dentin regeneration, histological evaluation” value is given as “physiological dentin was formed in the lower part the damaged dentine”.
